Test results taken from patent US10168342B2, “Lipid probes and uses thereof” (THE SCRIPPS RESEARCH INSTITUTE, priority 2015, dated 2019).

Columns and labels:
Assay in all cases: isoTOP-ABPP mapping of AEA-DA-modified peptides in Neuro2a cells
Assay type in all cases: cell-based
[1] = target: T1, AEA-DA-modified peptides in Neuro2a cells (Mus musculus, UniProt P35505); conditions: AEA-DA-modified peptide FAH P35505 238-254, SEQ ID NO 40; probe 100 μM, 12 replicates
T1 construct: endogenous in cells; host or cells: Neuro2a
T1 sequence (P35505 whole entry): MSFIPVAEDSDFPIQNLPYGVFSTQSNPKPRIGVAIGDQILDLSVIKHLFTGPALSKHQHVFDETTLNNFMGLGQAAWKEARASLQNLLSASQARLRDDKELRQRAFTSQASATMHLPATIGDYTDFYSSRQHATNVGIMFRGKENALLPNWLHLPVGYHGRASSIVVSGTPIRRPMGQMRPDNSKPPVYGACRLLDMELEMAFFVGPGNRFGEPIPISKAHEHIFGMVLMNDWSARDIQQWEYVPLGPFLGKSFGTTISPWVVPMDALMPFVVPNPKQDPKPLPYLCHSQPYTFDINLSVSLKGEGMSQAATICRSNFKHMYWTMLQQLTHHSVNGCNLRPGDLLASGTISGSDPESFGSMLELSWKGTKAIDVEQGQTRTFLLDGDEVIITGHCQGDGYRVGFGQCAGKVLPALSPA

[2] = target: T2, AEA-DA-modified peptides in Neuro2a cells (Mus musculus, UniProt Q9CZS1); conditions: AEA-DA-modified peptide ALDH1B1 Q9CZS1 119-147, SEQ ID NO 8; probe 100 μM, 12 replicates
T2 construct: endogenous in cells; host or cells: Neuro2a
T2 sequence (Q9CZS1 20-519): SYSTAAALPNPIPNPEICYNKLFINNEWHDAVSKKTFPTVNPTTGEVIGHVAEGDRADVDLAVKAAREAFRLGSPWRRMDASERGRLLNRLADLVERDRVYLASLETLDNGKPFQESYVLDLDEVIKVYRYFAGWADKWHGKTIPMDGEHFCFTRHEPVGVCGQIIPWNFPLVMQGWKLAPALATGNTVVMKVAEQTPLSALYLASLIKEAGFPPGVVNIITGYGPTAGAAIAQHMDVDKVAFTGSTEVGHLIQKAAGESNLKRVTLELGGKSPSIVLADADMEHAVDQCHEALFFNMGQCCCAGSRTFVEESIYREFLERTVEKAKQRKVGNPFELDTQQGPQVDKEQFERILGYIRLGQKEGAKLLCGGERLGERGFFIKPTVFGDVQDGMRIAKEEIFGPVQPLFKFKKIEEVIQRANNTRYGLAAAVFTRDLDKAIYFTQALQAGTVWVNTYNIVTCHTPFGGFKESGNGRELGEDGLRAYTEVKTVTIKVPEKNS

[3] = target: T3, AEA-DA-modified peptides in Neuro2a cells (Mus musculus, UniProt Q925I1); conditions: AEA-DA-modified peptide ATAD3 Q92511 238-246, SEQ ID NO 16; probe 100 μM, 12 replicates
T3 construct: endogenous in cells; host or cells: Neuro2a
T3 sequence (Q925I1 whole entry): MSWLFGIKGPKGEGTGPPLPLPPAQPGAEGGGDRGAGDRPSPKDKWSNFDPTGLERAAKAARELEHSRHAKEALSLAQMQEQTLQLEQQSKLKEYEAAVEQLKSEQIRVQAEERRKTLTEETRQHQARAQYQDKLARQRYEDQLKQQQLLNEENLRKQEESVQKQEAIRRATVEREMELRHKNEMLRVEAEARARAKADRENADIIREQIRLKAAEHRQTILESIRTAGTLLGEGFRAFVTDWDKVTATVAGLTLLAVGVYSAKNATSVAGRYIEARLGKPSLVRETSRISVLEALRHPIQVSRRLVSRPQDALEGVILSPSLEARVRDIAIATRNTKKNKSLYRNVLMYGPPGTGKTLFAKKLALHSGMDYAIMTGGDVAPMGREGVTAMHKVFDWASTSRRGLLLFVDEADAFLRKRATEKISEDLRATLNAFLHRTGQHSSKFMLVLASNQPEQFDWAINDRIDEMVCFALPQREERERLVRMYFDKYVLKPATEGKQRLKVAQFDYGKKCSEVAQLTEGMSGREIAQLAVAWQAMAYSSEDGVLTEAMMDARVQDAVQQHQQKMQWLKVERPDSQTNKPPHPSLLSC

[4] = target: T4, AEA-DA-modified peptides in Neuro2a cells (Mus musculus, UniProt Q9DC61); conditions: AEA-DA-modified peptide PMPCA Q9DC61 428-451, SEQ ID NO 88; probe 100 μM, 12 replicates
T4 construct: endogenous in cells; host or cells: Neuro2a

[5] = target: T5, AEA-DA-modified peptides in Neuro2a cells (Mus musculus, UniProt P20029); conditions: probe 100 μM, 12 replicates
T5 construct: endogenous in cells; host or cells: Neuro2a
T5 sequence (P20029 20-655): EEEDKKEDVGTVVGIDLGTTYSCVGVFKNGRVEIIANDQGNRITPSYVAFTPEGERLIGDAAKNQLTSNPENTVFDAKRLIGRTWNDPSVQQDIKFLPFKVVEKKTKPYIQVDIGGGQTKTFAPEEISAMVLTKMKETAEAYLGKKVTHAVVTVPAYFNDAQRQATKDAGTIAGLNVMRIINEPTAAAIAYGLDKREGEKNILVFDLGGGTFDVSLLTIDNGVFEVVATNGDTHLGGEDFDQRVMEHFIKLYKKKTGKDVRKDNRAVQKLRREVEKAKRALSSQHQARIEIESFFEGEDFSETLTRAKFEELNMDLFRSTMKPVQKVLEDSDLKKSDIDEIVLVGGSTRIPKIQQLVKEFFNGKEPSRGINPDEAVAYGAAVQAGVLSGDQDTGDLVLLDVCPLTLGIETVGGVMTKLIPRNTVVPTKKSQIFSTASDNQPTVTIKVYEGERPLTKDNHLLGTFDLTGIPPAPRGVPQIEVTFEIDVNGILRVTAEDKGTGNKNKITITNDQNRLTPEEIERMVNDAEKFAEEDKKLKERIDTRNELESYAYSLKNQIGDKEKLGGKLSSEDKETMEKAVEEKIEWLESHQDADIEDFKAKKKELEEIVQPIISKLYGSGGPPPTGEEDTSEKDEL

[6] = target: T6, AEA-DA-modified peptides in Neuro2a cells (Mus musculus, UniProt Q8BJ03); conditions: AEA-DA-modified peptide COX15 Q8BJ03 317-331, SEQ ID NO 25; probe 100 μM, 12 replicates
T6 construct: endogenous in cells; host or cells: Neuro2a
T6 sequence (Q8BJ03 whole entry): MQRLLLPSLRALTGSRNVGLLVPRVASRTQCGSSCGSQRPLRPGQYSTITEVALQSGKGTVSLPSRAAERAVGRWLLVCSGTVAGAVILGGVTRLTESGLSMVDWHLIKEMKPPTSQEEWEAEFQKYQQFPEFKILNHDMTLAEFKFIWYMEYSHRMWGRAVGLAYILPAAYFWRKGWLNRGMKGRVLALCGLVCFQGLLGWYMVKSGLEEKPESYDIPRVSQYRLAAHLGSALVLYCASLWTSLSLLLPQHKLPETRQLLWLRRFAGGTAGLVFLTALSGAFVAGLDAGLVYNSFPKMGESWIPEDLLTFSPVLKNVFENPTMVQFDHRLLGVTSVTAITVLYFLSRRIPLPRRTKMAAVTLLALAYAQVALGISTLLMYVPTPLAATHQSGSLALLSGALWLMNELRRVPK

[7] = target: T7, AEA-DA-modified peptides in Neuro2a cells (Mus musculus, UniProt P53811); conditions: AEA-DA-modified peptide PITPNB P53811 32-45, SEQ ID NO 86; probe 100 μM, 12 replicates
T7 construct: endogenous in cells; host or cells: Neuro2a
T7 sequence (P53811 whole entry): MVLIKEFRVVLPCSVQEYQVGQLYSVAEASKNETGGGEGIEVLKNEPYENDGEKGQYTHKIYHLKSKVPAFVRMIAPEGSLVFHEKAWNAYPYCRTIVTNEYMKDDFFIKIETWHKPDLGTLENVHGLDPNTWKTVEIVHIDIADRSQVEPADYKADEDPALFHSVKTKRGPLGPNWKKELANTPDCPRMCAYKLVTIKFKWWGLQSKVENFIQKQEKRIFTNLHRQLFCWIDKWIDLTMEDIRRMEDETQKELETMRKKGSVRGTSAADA

[8] = target: T8, AEA-DA-modified peptides in Neuro2a cells (Mus musculus, UniProt P09103); conditions: probe 100 μM, 12 replicates
T8 construct: endogenous in cells; host or cells: Neuro2a
T8 sequence (P09103 20-509): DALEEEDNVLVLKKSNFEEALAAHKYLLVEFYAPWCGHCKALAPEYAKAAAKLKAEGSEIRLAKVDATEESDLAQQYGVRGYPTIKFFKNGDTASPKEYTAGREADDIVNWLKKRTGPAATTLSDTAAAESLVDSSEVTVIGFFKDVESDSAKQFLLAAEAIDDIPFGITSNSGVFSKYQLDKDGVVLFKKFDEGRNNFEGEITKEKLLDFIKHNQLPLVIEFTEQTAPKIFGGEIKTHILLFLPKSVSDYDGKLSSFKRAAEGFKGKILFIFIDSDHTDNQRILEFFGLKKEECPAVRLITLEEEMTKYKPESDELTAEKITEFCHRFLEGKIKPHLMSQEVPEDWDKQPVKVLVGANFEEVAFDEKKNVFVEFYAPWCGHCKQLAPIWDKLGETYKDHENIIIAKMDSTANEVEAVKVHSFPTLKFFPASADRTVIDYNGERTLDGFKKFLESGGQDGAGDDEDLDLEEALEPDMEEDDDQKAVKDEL

[9] = target: T9, AEA-DA-modified peptides in Neuro2a cells (Mus musculus, UniProt Q8K411); conditions: AEA-DA-modified peptide PITRM1 Q8K411 364-386, SEQ ID NO 87; probe 100 μM, 12 replicates
T9 construct: endogenous in cells; host or cells: Neuro2a
T9 sequence (Q8K411 16-1036): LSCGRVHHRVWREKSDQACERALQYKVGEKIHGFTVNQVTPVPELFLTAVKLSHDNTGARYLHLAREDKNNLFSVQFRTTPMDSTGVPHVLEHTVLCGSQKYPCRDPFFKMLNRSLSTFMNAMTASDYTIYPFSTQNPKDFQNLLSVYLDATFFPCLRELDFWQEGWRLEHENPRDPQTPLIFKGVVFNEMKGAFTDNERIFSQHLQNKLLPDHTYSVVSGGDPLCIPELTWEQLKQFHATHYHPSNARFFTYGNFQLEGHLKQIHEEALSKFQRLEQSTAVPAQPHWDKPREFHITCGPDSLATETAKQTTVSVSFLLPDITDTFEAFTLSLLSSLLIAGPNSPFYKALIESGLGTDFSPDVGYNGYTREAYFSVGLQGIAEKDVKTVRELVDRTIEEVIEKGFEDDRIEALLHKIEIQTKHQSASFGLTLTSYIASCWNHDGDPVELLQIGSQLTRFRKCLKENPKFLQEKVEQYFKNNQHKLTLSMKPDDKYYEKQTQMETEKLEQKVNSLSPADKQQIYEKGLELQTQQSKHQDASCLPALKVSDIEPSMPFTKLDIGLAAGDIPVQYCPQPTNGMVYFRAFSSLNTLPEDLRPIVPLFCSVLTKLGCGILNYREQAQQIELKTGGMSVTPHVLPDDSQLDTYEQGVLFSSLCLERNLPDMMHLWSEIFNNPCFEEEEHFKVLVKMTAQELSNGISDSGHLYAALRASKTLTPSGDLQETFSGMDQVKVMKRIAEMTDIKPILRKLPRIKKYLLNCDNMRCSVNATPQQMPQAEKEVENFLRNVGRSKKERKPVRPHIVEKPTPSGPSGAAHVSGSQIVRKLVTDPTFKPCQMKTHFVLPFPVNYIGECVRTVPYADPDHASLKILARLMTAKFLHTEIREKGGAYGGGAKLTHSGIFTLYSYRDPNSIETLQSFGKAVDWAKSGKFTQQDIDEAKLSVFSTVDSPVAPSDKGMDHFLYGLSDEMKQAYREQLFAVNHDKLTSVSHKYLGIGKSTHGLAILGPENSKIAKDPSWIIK

[10] = target: T10, AEA-DA-modified peptides in Neuro2a cells (Mus musculus, UniProt P42125); conditions: AEA-DA-modified peptide ECI1 P42125 276-284, SEQ ID NO 34; probe 100 μM, 12 replicates
T10 construct: endogenous in cells; host or cells: Neuro2a
T10 sequence (P42125 29-289): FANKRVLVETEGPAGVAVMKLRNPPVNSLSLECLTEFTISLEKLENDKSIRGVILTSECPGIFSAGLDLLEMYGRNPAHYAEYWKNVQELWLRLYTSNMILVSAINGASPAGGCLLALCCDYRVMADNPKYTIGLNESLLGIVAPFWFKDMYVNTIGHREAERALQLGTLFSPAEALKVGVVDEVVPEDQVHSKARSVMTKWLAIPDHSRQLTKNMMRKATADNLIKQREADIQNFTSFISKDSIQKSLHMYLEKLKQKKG

[11] = target: T11, AEA-DA-modified peptides in Neuro2a cells (Mus musculus, UniProt O09061); conditions: AEA-DA-modified peptide PSMB1 O09061 127-146, SEQ ID NO 90; probe 100 μM, 12 replicates
T11 construct: endogenous in cells; host or cells: Neuro2a
T11 sequence (O09061 28-240): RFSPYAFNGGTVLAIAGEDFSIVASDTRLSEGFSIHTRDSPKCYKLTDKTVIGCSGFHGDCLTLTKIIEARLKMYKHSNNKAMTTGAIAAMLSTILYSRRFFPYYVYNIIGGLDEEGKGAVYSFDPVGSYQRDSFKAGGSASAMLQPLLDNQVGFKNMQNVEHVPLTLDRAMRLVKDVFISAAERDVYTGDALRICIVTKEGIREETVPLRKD

SMILES: C#CCCCC1(CC/C=C\C/C=C\C/C=C\CCCC(=O)NCCO)N=N1 [AEA-DA, (5Z,8Z,11Z)-N-(2-hydroxyethyl)-14-(3-(pent-4-yn-1-yl)-3H-diazirin-3-yl)tetradeca-5,8,11-trienamide]
- Times observed [1]: 8
- Times observed [2]: 4
- Times observed [3]: 3
- Times observed [4]: 7
- Times observed ([5]; AEA-DA-modified peptide HSPA5 P20029 466-476, SEQ ID NO 52): 8
- Times observed ([5]; AEA-DA-modified peptide HSPA5 P20029 635-656, SEQ ID NO 53): 4
- Times observed [6]: 2
- Times observed [7]: 4
- Times observed ([8]; AEA-DA-modified peptide P4HB P09103 135-165, SEQ ID NO 77): 3
- Times observed ([8]; AEA-DA-modified peptide P4HB P09103 233-250, SEQ ID NO 78): 10
- Times observed [9]: 2
- Times observed [10]: 2
- Times observed [11]: 8
